Assay results from ChEMBL document CHEMBL1150263, “Combining docking, molecular dynamics and the linear interaction energy method to predict binding modes and affinities for non-nucleoside inhibitors to HIV-1 reverse transcriptase” (J Med Chem, 2008).

Each compound was assayed against Human immunodeficiency virus type 1 reverse transcriptase (Human immunodeficiency virus 1, UniProt Q72547) (assay: Inhibition of HIV1 reverse transcriptase).

SMILES	IC50 [µM]
Cc1cc(C)cc(Cc2cc[nH]c(=O)c2N(C)C)c1	7.94
Cc1cc(C)cc(Cc2c(CC(C)C)c(C)[nH]c(=O)c2N(C)C)c1	0.05
CCc1c(C)[nH]c(=O)c(N(C)C)c1Cc1cc(C)cc(C)c1	0.008
CCCc1c(C)[nH]c(=O)c(N(C)C)c1Cc1cc(C)cc(C)c1	0.05
Cc1cc(C)cc(Cc2c(C)c(C(C)C)[nH]c(=O)c2N(C)C)c1	0.794
CCc1c(C)[nH]c(=O)c(NNC(=S)Nc2ccccc2)c1Cc1cccc(C)c1	3.16
CCc1[nH]c(=O)c(N(C)C)c(Cc2cc(C)cc(C)c2)c1C	0.01
CCc1c(C)[nH]c(=O)c(NNC(N)=S)c1Cc1cccc(C)c1	0.316
CCC1C(Cc2cccc(C)c2)=C(N(C)CCO)C(=O)NC1C (stereo not drawn)	0.005
Cc1cc(C)cc(Cc2cc(C)[nH]c(=O)c2N(C)C)c1	0.398
Cc1cc(C)cc(Cc2c3c([nH]c(=O)c2N(C)C)CCCC3)c1	0.01
Cc1cc(C)cc(Cc2c(C)c(C)[nH]c(=O)c2N(C)C)c1	0.005
CCNC(=S)NNc1c(Cc2cccc(C)c2)c(CC)c(C)[nH]c1=O	25.1
